Values quoted from earlier work in patent US6699701B1, “Method and device for sanitation using bacteriophages” (priority 2000, dated 2004).

Test system: bacterial counts
Details: fresh-cut fruits, most effective chemical sanitizer

For `OO` [hydrogen peroxide], the “maximum reduction rate in bacterial counts” value is given as at most 1.3 logs.
